# Molecular target: T1, BTK (Homo sapiens, UniProt Q06187)
# T1 construct: endogenous in cells; host or cells: Mino cells
# Experiment: BTK degradation activity test in Mino cells (Westernblot or Elisa)
# Format: cell-based
# Conditions: 24-72 h incubation
# Procedure: The Mino cell line cells are 0.5˜1 million/well in 6-well plates. The compounds are diluted to different concentrations, added to the plate, and after 24-72 h of incubation, the cells are collected. After the cells were lysed, the total protein concentration in each well was determined with a BCA kit. The amount of BTK is determined using the Westernblot or Elisa method.
# T1 sequence (Q06187 whole entry): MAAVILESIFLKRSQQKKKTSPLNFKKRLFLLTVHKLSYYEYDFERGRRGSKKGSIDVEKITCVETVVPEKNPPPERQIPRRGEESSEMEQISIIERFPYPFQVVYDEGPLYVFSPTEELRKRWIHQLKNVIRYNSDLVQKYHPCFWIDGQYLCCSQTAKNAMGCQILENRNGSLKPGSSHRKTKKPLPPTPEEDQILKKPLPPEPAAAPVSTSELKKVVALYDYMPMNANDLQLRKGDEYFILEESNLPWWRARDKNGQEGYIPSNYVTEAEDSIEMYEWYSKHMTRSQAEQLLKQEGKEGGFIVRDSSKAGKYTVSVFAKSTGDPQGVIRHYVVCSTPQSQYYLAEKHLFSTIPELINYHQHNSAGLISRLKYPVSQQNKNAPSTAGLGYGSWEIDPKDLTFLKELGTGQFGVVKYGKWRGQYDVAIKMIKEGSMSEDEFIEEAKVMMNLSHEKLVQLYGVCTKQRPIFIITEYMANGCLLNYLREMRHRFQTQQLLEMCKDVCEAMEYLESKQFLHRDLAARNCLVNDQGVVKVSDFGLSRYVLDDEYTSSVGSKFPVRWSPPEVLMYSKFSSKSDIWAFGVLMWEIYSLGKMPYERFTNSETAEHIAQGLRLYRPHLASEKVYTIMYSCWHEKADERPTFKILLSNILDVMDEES
row,Compound,DC50
1,"CC(C)(C)C(=O)OCN1C(=O)CCC(N2C(=O)c3ccc(N4CCC(CN5CCC(c6ccc(Nc7nc(N8CCCCC8)nnc7C(N)=O)cc6)CC5)C4)cc3C2=O)C1=O (stereo not drawn) [Compound 062, (3-(5-(3-((4-(4-((6-carbamoyl-3-(piperidin-1-yl)-1,2,4-triazin-5-yl)amino)phenyl)piperidin-1-yl)methyl)pyrrolidin-1-yl)-1,3-dioxoisoindolin-2-yl)-2,6-dioxopiperidin-1-yl) methyl pivalate]",< 10 nM
2,"CN1CCN(c2nnc(C(N)=O)c(Nc3ccc(C4CCN(CC5CCN(c6ccc7c(c6)C(=O)N(C6CCC(=O)N(COC(=O)C(C)(C)C)C6=O)C7=O)C5)CC4)cc3)n2)CC1 (stereo not drawn) [Compound 063, (3-(5-(3-((4-(4-((6-carbamoyl-3-(4-methylpiperazin-1-yl)-1,2,4-triazin-5-yl)amino)phenyl)piperidin-1-yl)methyl)pyrrolidin-1-yl)-1,3-dioxoisoindolin-2-yl)-2,6-dioxopiperidin-1-yl) methyl pivalate]",< 10 nM
3,"NC(=O)c1nnc(N2CCC[C@@H](O)C2)nc1Nc1ccc(C2CCN(CC3CCN(c4ccc5c(c4)C(=O)N(C4CCC(=O)NC4=O)C5=O)C3)CC2)c(F)c1 (stereo partly drawn) [Compound 067, 5-((4-(1-((1-(2-(2,6-dioxopiperidin-3-yl)-1,3-dioxoisoindolin-5-yl)pyrrolidin-3-yl)methyl)piperidin-4-yl)-3-fluorophenyl)amino)-3-((R)-3-hydroxypiperidin-1-yl)-1,2,4-triazine-6-carboxamide]",< 10 nM
4,"CC(C)(C)C(=O)OCN1C(=O)CCC(N2C(=O)c3ccc(N4CCC(CN5CCC(c6ccc(Nc7nc(N8CCCCC8)nnc7C(N)=O)cc6F)CC5)C4)cc3C2=O)C1=O (stereo not drawn) [Compound 068, (3-(5-(3-((4-(4-((6-carbamoyl-3-(piperidin-1-yl)-1,2,4-triazin-5-yl)amino)-2-fluorophenyl)piperidin-1-yl)methyl)pyrrolidin-1-yl)-1,3-dioxoisoindolin-2-yl)-2,6-dioxopiperidin-1-yl) methyl pivalate]",< 10 nM
5,"CC(OC(=O)C(C)(C)C)N1C(=O)CCC(N2C(=O)c3ccc(N4CCC(CN5CCC(c6ccc(Nc7nc(N8CCN(C)CC8)nnc7C(N)=O)cc6)CC5)C4)cc3C2=O)C1=O (stereo not drawn) [Compound 070, 1-(3-(5-(3-((4-(4-((6-carbamoyl-3-(4-methylpiperazin-1-yl)-1,2,4-triazin-5-yl)amino)phenyl)piperidin-1-yl)methyl)pyrrolidin-1-yl)-1,3-dioxoisoindolin-2-yl)-2,6-dioxopiperidin-1-yl) ethyl pivalate]",< 10 nM
6,"CC(OC(=O)C(C)(C)C)N1C(=O)CCC(N2C(=O)c3ccc(N4CCC(CN5CCN(c6ccc(Nc7nc(N8CCCCC8)nnc7C(N)=O)cc6F)CC5)C4)cc3C2=O)C1=O (stereo not drawn) [Compound 071, 1-(3-(5-(3-((4-(4-((6-carbamoyl-3-(piperidin-1-yl)-1,2,4-triazin-5-yl)amino)-2-fluorophenyl)piperazin-1-yl)methyl)pyrrolidin-1-yl)-1,3-dioxoisoindolin-2-yl)-2,6-dioxopiperidin-1-yl) ethyl pivalate]",< 10 nM
7,"CC(C)[C@H](N)C(=O)OCN1C(=O)CCC(N2C(=O)c3ccc(N4CCC(CN5CCN(c6ccc(Nc7nc(N8CCCCC8)nnc7C(N)=O)cc6F)CC5)C4)cc3C2=O)C1=O (stereo partly drawn) [Compound 074, (3-(5-(3-((4-(4-((6-carbamoyl-3-(piperidin-1-yl)-1,2,4-triazin-5-yl)amino)-2-fluorophenyl)piperazin-1-yl)methyl)pyrrolidin-1-yl)-1,3-dioxoisoindolin-2-yl)-2,6-dioxopiperidin-1-yl) methyl L-valinate]",< 10 nM
8,"NC(=O)c1nnc(N2CCCCC2)nc1Nc1ccc(N2CCC(CN3CCN(c4ccc(-c5ccc(=O)[nH]n5)cc4C(F)(F)F)CC3)CC2)c(F)c1 [Compound 089, 5-((3-fluoro-4-(4-((4-(4-(6-oxo-1,6-dihydropyridazin-3-yl)-2-(trifluoromethyl)phenyl)piperazin-1-yl)methyl)piperidin-1-yl)phenyl)amino)-3-(piperidin-1-yl)-1,2,4-triazine-6-carboxamide]",< 10 nM
9,"CC(=O)N[C@@H]1CCCN(c2nnc(C(N)=O)c(Nc3ccc(N4CCN(CC5CCN(c6ccc(N7CCC(=O)NC7=O)cc6)CC5)CC4)c(F)c3)n2)C1 [Compound 091, (R)-3-(3-acetamidopiperidin-1-yl)-5-((4-(4-((1-(4-(2,4-dioxotetrahydropyrimidin-1(2H)-yl)phenyl)piperidin-4-yl)methyl)piperazin-1-yl)-3-fluorophenyl)amino)-1,2,4-triazine-6-carboxamide]",< 10 nM

# Continued, values first:
row,DC50,Compound
1,< 10 nM,"CC(C)(C)C(=O)OCN1C(=O)CCC(N2C(=O)c3ccc(N4CCC(CN5CCN(c6ccc(Nc7nc(N8CCCCC8)nnc7C(N)=O)cc6F)CC5)C4)cc3C2=O)C1=O (stereo not drawn) [Compound 064, (3-(5-(3-((4-(4-((6-carbamoyl-3-(piperidin-1-yl)-1,2,4-triazin-5-yl)amino)-2-fluorophenyl)piperazin-1-yl)methyl)pyrrolidin-1-yl)-1,3-dioxoisoindolin-2-yl)-2,6-dioxopiperidin-1-yl) methyl pivalate]"
2,< 10 nM,"CC(C)(C)C(=O)OCN1C(=O)CCN(c2ccc(N3CCN(CC4CCN(c5ccc(Nc6nc(N7CCCCC7)nnc6C(N)=O)cc5F)CC4)CC3)cc2)C1=O [Compound 066, (3-(4-(4-((1-(4-((6-carbamoyl-3-(piperidin-1-yl)-1,2,4-triazin-5-yl)amino)-2-fluorophenyl)piperidin-4-yl)methyl)piperazin-1-yl)phenyl)-2,6-dioxotetrahydropyrimidin-1(2H)-yl) methyl pivalate]"
3,< 10 nM,"CC(OC(=O)C(C)(C)C)N1C(=O)CCC(N2C(=O)c3ccc(N4CCC(CN5CCC(c6ccc(Nc7nc(N8CCCCC8)nnc7C(N)=O)cc6)CC5)C4)cc3C2=O)C1=O (stereo not drawn) [Compound 069, 1-(3-(5-(3-((4-(4-((6-carbamoyl-3-(piperidin-1-yl)-1,2,4-triazin-5-yl)amino)phenyl)piperidin-1-yl)methyl)pyrrolidin-1-yl)-1,3-dioxoisoindolin-2-yl)-2,6-dioxopiperidin-1-yl) ethyl pivalate]"
4,< 10 nM,"CC(OC(=O)C(C)(C)C)N1C(=O)CCN(c2ccc(N3CCN(CC4CCN(c5ccc(Nc6nc(N7CCCCC7)nnc6C(N)=O)cc5F)CC4)CC3)cc2)C1=O (stereo not drawn) [Compound 072, 1-(3-(4-(4-((1-(4-((6-carbamoyl-3-(piperidin-1-yl)-1,2,4-triazin-5-yl)amino)-2-fluorophenyl)piperidin-4-yl)methyl)piperazin-1-yl)phenyl)-2,6-dioxotetrahydropyrimidin-1(2H)-yl) ethyl pivalate]"
5,< 10 nM,"CC(C)[C@H](N)C(=O)OCN1C(=O)CCC(N2C(=O)c3ccc(N4CCC(CN5CCC(c6ccc(Nc7nc(N8CCCCC8)nnc7C(N)=O)cc6)CC5)C4)cc3C2=O)C1=O (stereo partly drawn) [Compound 073, (3-(5-(3-((4-(4-((6-carbamoyl-3-(piperidin-1-yl)-1,2,4-triazin-5-yl)amino)phenyl)piperidin-1-yl)methyl)pyrrolidin-1-yl)-1,3-dioxoisoindolin-2-yl)-2,6-dioxopiperidin-1-yl) methyl L-valinate]"
6,< 10 nM,"NC(=O)c1nnc(N2CCCCC2)nc1Nc1ccc(N2CCN(CC3CCN(c4ccc(N5CCC(=O)NC5=O)cc4)CC3)CC2)c(F)c1 [Compound 080, 5-((4-(4-((1-(4-(2,4-dioxotetrahydropyrimidin-1(2H)-yl)phenyl)piperidin-4-yl)methyl)piperazin-1-yl)-3-fluorophenyl)amino)-3-(piperidin-1-yl)-1,2,4-triazine-6-carboxamide]"

# — patent publication US20260167620A1, “MULTIFUNCTIONAL COMPOUND CAPABLE OF DEGRADING BTK KINASE, AND COMPOSITION AND USE” (HANGZHOU HEALZEN THERAPEUTICS CO., LTD., priority 2021, published 2026)
